This note sets out measurements from patent publication US12156862B2, “Medicaments for the treatment of vasoconstriction related diseases or disorders” (Sulfateq B.V., priority 2017, dated 2024).

Assay [1] deals with T1, human α1 adrenoceptor subtype B (Homo sapiens, UniProt P35368).
T1 construct: expressed in transfected cells; host or cells: CHO-K1
T1 sequence (P35368 1-520): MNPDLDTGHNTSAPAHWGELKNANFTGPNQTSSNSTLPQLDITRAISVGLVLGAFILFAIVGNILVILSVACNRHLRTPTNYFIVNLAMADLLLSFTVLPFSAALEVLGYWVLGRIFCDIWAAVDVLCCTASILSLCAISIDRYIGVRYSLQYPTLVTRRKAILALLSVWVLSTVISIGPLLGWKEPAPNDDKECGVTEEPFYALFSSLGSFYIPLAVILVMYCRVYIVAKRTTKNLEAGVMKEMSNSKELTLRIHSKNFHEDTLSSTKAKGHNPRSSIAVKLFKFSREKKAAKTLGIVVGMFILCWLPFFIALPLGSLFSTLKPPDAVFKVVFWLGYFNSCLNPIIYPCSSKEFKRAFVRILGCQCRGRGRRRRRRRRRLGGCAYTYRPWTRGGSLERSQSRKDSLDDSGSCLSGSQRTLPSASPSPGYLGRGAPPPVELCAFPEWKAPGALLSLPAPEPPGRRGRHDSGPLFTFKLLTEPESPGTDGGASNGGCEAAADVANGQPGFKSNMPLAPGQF
The assay can be described thus: Phenylephrine-induced intracellular calcium (FLIPR Calcium 6) in CHO cells, α1B. Format: cell-based. The method, then: (§1) CHO-K1 cells were stably transfected with a plasmid containing human al-AR subtypes A, B and D in separate cell lines in DMEM-F12 medium with 10% FBS, 1% penicillin-streptomycin and 200 μg/mL Geneticin (G418, Invitrogen, Carlsbad, CA).
(§2) On the next day, CHO cells were treated with either vehicle (0.1% DMSO) or SUL-121 enantiomers for 30 min at 37° C. and stimulated with a 3-fold dilution series of PE (20 μM-100 pM). [Ca^2], was measured using the fluorescent FLIPR Calcium 6 assay kit (Molecular Devices) in immortalized CHO cells stably expressing the α1 adrenoceptor.
(§3) Initially, calcium responses induced by non-cumulative concentration series of phenylephrine were investigated using fluorescent measurements in α1A adrenoceptor-overexpressing CHO cells treated with SUL-150 and SUL-151 (FIG. 4). Fluorescent measurement data was processed and analyzed in SoftMax Pro 7 and expressed as % of baseline AUC with a 3-fold multiplier using an average of first 10 measurement points as baseline.
Background: Calcium assays in cells follow changes in intracellular calcium, usually with a dye or a luminescent sensor.

Assay [2] concerns the target T2, human α1 adrenoceptor subtype A (Homo sapiens, UniProt P35348).
T2 construct: expressed in transfected cells; host or cells: CHO-K1
T2 sequence (P35348 1-466): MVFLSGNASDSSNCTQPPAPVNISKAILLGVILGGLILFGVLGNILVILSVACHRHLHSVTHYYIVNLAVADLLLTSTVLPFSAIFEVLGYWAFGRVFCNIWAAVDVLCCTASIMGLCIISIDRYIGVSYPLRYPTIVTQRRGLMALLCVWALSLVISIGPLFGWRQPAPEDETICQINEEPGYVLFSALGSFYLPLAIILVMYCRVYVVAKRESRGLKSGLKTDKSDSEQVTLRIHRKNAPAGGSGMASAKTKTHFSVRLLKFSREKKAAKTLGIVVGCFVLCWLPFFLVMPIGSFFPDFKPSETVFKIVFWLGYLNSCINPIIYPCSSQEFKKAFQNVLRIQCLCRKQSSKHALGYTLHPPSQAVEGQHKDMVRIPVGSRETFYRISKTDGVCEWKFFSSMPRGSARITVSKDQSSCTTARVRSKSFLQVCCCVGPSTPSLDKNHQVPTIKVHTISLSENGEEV
The assay can be described thus: Phenylephrine-induced intracellular calcium (FLIPR Calcium 6) in CHO cells, α1A. The format is cell-based. The method, then: as §1, §2, §3

Assay [3] deals with T3, human α1 adrenoceptor subtype D (Homo sapiens, UniProt P25100).
T3 construct: expressed in transfected cells; host or cells: CHO-K1
T3 sequence (P25100 1-572): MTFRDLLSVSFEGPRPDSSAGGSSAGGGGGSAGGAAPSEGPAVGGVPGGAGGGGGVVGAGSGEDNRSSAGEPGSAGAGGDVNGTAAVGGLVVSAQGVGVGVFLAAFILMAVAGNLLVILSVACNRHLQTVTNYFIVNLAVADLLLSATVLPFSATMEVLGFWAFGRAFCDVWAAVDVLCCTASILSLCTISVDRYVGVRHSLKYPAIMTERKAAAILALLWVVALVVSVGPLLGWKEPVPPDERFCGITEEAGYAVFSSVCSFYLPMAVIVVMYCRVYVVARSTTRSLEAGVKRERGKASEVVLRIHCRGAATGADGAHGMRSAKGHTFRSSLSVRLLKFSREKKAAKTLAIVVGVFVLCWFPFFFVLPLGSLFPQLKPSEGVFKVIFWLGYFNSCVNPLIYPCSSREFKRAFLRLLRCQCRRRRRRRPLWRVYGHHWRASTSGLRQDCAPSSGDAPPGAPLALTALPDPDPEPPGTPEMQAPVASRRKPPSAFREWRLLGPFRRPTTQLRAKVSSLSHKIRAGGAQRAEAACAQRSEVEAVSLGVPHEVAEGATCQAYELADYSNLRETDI
The assay can be described thus: Phenylephrine-induced intracellular calcium (FLIPR Calcium 6) in CHO cells, α1D. Format: cell-based. The procedure:
as §1, §2, §3

A further assay relates to α1 adrenoceptor. The assay can be described thus: Methoxamine-induced constriction of isolated porcine intrarenal arteries. The procedure: Porcine kidneys were obtained from a local slaughterhouse (Kroon Vlees, Gotenburgweg 30, 9723 TM Groningen. The Netherlands) and transported on ice in normal physiological Krebs buffer containing 120 mM NaCl, 6 mM KCl, 2.5 mM CaCl2×2H2O, 1.2 mM MgCl2×6H2O, 1.2 mM NaH2PO4×H2O, 25 mM NaHCO3 and 11.4 mM D-(+)-Glucose monohydrate (all ingredients were purchased from Merck) in ultrapure water.
The renal artery tree was dissected from the kidney, cleaned of surrounding connective tissue and cut into equally-sized ring segments (2 mm in length). In some rings, endothelium denudation was performed by gentle rubbing of the intimal surface with a paper clip. Rings were mounted in organ baths as described previously (Buikema et al., 2000). Arterial rings were washed thoroughly by replacing Krebs buffer and allowed to equilibrate for a period of 60 min under 1.4 g of resting tension before they were assessed for viability by inducing 2 subsequent constrictions with KCl (60 mM). […] After washout and stabilization, rings were treated for 30 minutes by incubation with vehicle (0.1% DMSO), SUL-121, SUL-150 or SUL-151, followed by subsequent incubation with cumulative doses of phenylephrine.
Additionally, the effects of SUL-150 were investigated on stimulation with methoxamine, which is an alternative α1 adrenoceptor agonist.

Each structure is given as a SMILES string.

`Cc1c(C)c2c(c(C)c1O)CC[C@](C)(C(=O)N1CCNCC1)O2` [SUL-150, (R)(6-hydroxy-2,5,7,8-tetramethylchroman-2-yl)(piperazin-1-yl)methanone]: the “logEC50 of phenylephrine-induced calcium influx, α1B” value in assay [1] (10 μM test compound) is on record as −7.51 ± 0.08; in assay [1] (30 μM test compound) it was −7.24 ± 0.07; in assay [1] (100 μM test compound), −6.72 ± 0.08. The “effect on PE-induced calcium transients, α1 adrenoceptor subtype B” value in assay [1] (in words) is on record as “shifted dose response curves rightwards”. Besides, the “logEC50 of phenylephrine-induced calcium influx, α1A” value in assay [2] (10 μM test compound) is listed as −7.62 ± 0.03; in assay [2] (30 μM test compound), −7.28 ± 0.03; in assay [2] (100 μM test compound) it was −6.88 ± 0.03. Further, the “effect on PE-induced calcium transients, α1 adrenoceptor subtype A” value in assay [2] (in words) is “shifted dose response curves rightwards”. Besides, the entries for the “logEC50 of phenylephrine-induced calcium influx, α1D” value in assay [3] (10 μM test compound), in assay [3] (30 μM test compound) and in assay [3] (100 μM test compound) were −7.37 ± 0.10, −7.04 ± 0.06 and −6.80 ± 0.10, respectively. In addition, the “effect on PE-induced calcium transients, α1 adrenoceptor subtype D” value in assay [3] (in words) is “shifted dose response curves rightwards”. The “effect on dose response curves to methoxamine” value in the assay on α1 adrenoceptor (SUL-150 pre-treatment (30 μM and 100 μM), intact endothelium) is on record as “shifted rightward”. Moreover, the “effect on methoxamine induced constriction after removal of the endothelium” value in the assay on α1 adrenoceptor (endothelium-denuded rings) was “did not abrogate the effects of SUL-150”.
